A value given as a limit tells only on which side of the number the result lay.

Test [1] in a line: AMD model reaction with S-palmitoyl MESNA (HPLC/ELSD/MS). As to conditions: 5 mM each reactant, NaH2PO4 buffer 200 mM pH 7.1, 10 mM TCEP, 25° C. On the procedure:
The reaction was stirred at 25° C. and aliquots taken at the specified time points and subjected to HPLC/ELSD/MS analysis (Eclipse Plus C8 analytical column, 50-95% MeOH in H2O with 0.1% TFA, 0-7 min; 95% MeOH in H2O with 0.1% TFA, 7 min-end).

Test [2] has as its system AKT1 (pS473). Put plainly: Detection of AKT1 phosphorylation in HeLa cells (western blot). Format: cell-based. As to conditions: 1.25 μmol/10^7 cells, 20 min, then EGF 5 min. On the procedure:
(§1) HeLa cells were grown to confluency in 6 cm plates and then serum starved overnight in OptiMEM. Stock solutions of compounds were prepared in DMSO as before and diluted to the final indicated concentration in 2 mL of OptiMEM media before adding to cells. Cells were incubated at 37° C. for 20 min and then stimulated with […] EGF (ThermoFisher) for 5 min. Media was then removed and cells washed once with HBSS. 1.5 mL of HBSS was then added to each plate. Cells were detached using a cell scraper, pelleted by centrifugation at 1,000 rcf for 5 min and the pellet processed using MPER™ Mammalian Protein Extraction Reagent (ThermoFisher) with the addition of Halt Protease Inhibitor Cocktail (ThermoFisher) and 1 mM sodium orthovanadate. Samples were resolved by electrophoresis using 4-20% SDS-polyacrylamide gels (Bio-Rad) under denaturing and reducing conditions. Proteins were then electrotransferred to a PVDF membrane (Bio-Rad). The membrane was blocked with 3% BSA and then subjected to immunoblot analysis using AKT/MAPK Signaling Pathway Antibody Cocktail (ab151279) (Abcam) and secondary goat anti-rabbit IgG-HRP (sc-2030) (Santa Cruz Biotechnology). […]
(§2) Assays were performed in 3 biological replicates. Western blots were analyzed using ImageJl. […]

The target of the next test is T1, SNAP25 (Homo sapiens, UniProt P60880).
T1 construct: we detected the palmitoylation levels of eight known palmitoylated proteins after treatment with 1; endogenous in cells; host or cells: HeLa
T1 sequence (P60880 whole entry): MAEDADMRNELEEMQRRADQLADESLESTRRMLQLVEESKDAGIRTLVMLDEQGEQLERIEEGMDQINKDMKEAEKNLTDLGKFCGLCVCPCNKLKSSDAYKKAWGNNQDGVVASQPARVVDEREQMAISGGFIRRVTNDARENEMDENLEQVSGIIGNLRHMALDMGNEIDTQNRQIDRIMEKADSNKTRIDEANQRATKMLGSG
The experiment in a line: Acyl resin-assisted capture detection of SNAP25 palmitoylation in HeLa cells. The class given is cell-based. As to conditions: 1.25 μmol/10^7 cells, relative to vehicle. On the procedure:
HeLa cells were grown to confluency in 10 cm plates. Stock solutions of compounds were prepared in DMSO as before and diluted to the final indicated concentration in 5.5 mL of OptiMEM media before adding to cells. Cells were incubated at 37° C. for 20 min and then media removed and 3 mL of HBSS added to each plate. Cells were detached using a cell scraper, pelleted by centrifugation at 1,000 rcf for 5 min and the pellet processed using a CAPTUREome S-Palmitoylated Protein Kit (Badrilla, UK) according to the manufacturer's protocol. Samples were resolved by electrophoresis using 4-20% SDS-polyacrylamide gels (Bio-Rad) under denaturing and reducing conditions. Proteins were then electrotransferred to a PVDF membrane (Bio-Rad). […]
Assays were performed in 3 biological replicates. […] Western blots were analyzed using ImageJ^1. […]

Test [3] relates to AKT1 (pS473). Put plainly: Detection of AKT1 phosphorylation in T24 cells (western blot). As to conditions: T24 cells (oncogenic HRas mutation), 1.25 μmol/10^7 cells, 1 h. The class given is cell-based, human. On the procedure: (§3) T24 cells were grown to confluency in 6 cm plates. Stock solutions of compounds were prepared in DMSO as before and diluted to the final indicated concentration in 2 mL of OptiMEM media before adding to cells. Cells were incubated at 37° C. for 1 h and then media removed and 1.5 mL of HBSS added to each plate. Cells were detached using a cell scraper, pelleted by centrifugation at 1,000 rcf for 5 min and the pellet processed using MPER™ Mammalian Protein Extraction Reagent (ThermoFisher) with the addition of Halt Protease Inhibitor Cocktail (ThermoFisher) and 1 mM sodium orthovanadate. Samples were resolved by electrophoresis using 4-20% SDS-polyacrylamide gels (Bio-Rad) under denaturing and reducing conditions. Proteins were then electrotransferred to a PVDF membrane (Bio-Rad). The membrane was blocked with 3% BSA and then subjected to immunoblot analysis using AKT/MAPK Signaling Pathway Antibody Cocktail (ab151279) (Abcam) and secondary goat anti-rabbit IgG-HRP (sc-2030) (Santa Cruz Biotechnology). Chemiluminescent detection was performed by using SuperSignal West Pico PLUS chemiluminescent substrate (ThermoFisher) according to the manufacturer's instructions.
(§4) Assays were performed in 3 biological replicates. Western blots were analyzed using ImageJl. The intensity of the protein band in each condition was normalized to the intensity of the corresponding loading control (Rab11). […]
For orientation: In western blotting, separated proteins are transferred to a membrane and probed.

Test [4] has as its system ERK1/2 (pY204/pY187). Put plainly: Detection of ERK1/2 phosphorylation in HeLa cells (western blot). The class given is cell-based. As to conditions: 1.25 μmol/10^7 cells, 20 min, then EGF 5 min. On the procedure:
as §1, §2

The subject of test [5] is ERK1/2 (pY204/pY187). The experiment in a line: Detection of ERK1/2 phosphorylation in T24 cells (western blot). As to conditions: T24 cells (oncogenic HRas mutation), 1.25 μmol/10^7 cells, 1 h. The class given is cell-based, human. On the procedure:
as §3, §4

Consider `CCCCCCCCNC(=O)[C@@H](N)CS` [compound 1, H2N-L-Cys-Oct], for which the “reaction with MESNA thiopalmitate 3 (cleavage of model S-palmitoyl group, ligation product 4)” value in test [1] was “proceeded rapidly and irreversibly”. Also, the “AKT1 phosphorylation after EGF stimulation” value in the test on AKT1 (pS473) [2] was “significant decrease”. The “reduction of palmitoylation level of SNAP25” value at SNAP25 is greater than 80%. For the same compound, the AKT1 phosphorylation result with AKT1 (pS473) [3] is recorded as “near complete abrogation”. Moreover, the “ERK1/2 phosphorylation after EGF stimulation” value in the test with ERK1/2 (pY204/pY187) [4] is “but not ERK1/2 phosphorylation”. Moreover, the ERK1/2 phosphorylation result in the test with ERK1/2 (pY204/pY187) [5] was “near complete abrogation”.
